Measurements published in patent US9682069B2, “Methods of treating Dravet syndrome” (Ovid Therapeutics Inc., priority 2015, dated 2017).
Entries after “also recorded” stand apart in the source; their conditions may differ.

Legend:
[1] = in vivo, po
[2] = Study of driving performance after gaboxadol administration (Example 3); assay type: in vivo, human (healthy male and female subjects); details: for effect on memory test, body sway, DSST or critical tracking: cognitive and psychomotor test battery before the driving test
Text: The study participants included healthy, male and female subjects between 21 and 45 years of age, with a valid drivers license for at least 3 years.
Following a cognitive and psychomotor test battery, the driving test started at 9 am and lasted for one hour.

[3] = Study of daytime performance after sleep restriction (Example 4); assay type: in vivo, human (healthy adults)
Procedure: The study included a 2-night single-blind placebo run-in period, a 4-night double-blind treatment period during which sleep was restricted to 5 hours and a 2-night single-blind placebo run-out period. The study included healthy male and female volunteers 18 to <55 years of age.
2-night run-in period: All patients received placebo
2-night run-out period: All patients received placebo
The primary endpoints included observations based on the Multiple Sleep Latency Test (MSLT) and Slow Wave Sleep (SWS) assessment.

[4] = three-month efficacy study, insomnia; cited from earlier work
[5] = 111 individuals with depression; cited from earlier work

CCN(CC)CCN1C(=O)CN=C(c2ccccc2F)c2cc(Cl)ccc21 [Flurazepam]
residual effect on primary endpoints Choice Reaction Time and Critical Flicker Fusion [1]: showed significant effect

Oc1noc2c1CCNC2 [gaboxadol, 4,5,6,7-tetrahydroisoxazolo [5,4-c]pyridine-3-ol]
tolerability ([2]; both the evening and the middle-of-the-night dose, 15 mg): well tolerated | effect on memory test, body sway, DSST or critical tracking [2]: no effect | daytime performance, effect sizes for the neurocognitive battery ([3]; gaboxadol 15 mg versus placebo): no strong evidence that gaboxadol improves daytime performance | subjective daytime sleepiness versus placebo ([3]; gaboxadol 15 mg, Sleep Restriction period): trend towards less subjective daytime sleepiness | amount of slow wave sleep (SWS) versus placebo ([3]; gaboxadol 15 mg, Sleep Restriction period, p<0.001, 1 sided): significantly more SWS; also recorded: increases the amount of slow wave sleep | daytime sleepiness (MSLT) versus placebo ([3]; gaboxadol 15 mg, Sleep Restriction period, p=0.047, 1 sided): significantly less daytime sleepiness; also recorded: protective effect on reducing daytime sleepiness | MSLT, average difference versus placebo (longer) ([3]; gaboxadol 15 mg, last two Sleep Restriction days): 2.01 min | Karolinska Sleepiness Score (KSS), average difference versus placebo (less) ([3]; gaboxadol 15 mg, last two Sleep Restriction days, LDA model, p=0.058, 1 sided): 0.68 | SWS, average difference versus placebo (longer) ([3]; gaboxadol 15 mg, last two Sleep Restriction nights): 20.53 min | residual effect on primary endpoints Choice Reaction Time and Critical Flicker Fusion [1]: did not show residual effect | residual effects on other measurements (MSLT, DSST, Tracking, Memory tests, Body Sway, Leeds Sleep Evaluation Questionnaire) [1]: did not show any signs of residual effects | effects in sleep onset and sleep maintenance [4]: failed to show significant effects

OC(c1ccccc1)(c1ccccc1)C1CCCCN1 (centres unmarked) [pipradrol]
efficacy versus placebo in depression [5]: not superior to placebo

Cc1ccc(-c2nc3ccc(C)cn3c2CC(=O)N(C)C)cc1 [zolpidem]
effect on driving performance, middle-of-the-night administration ([2]; dose at 4 am (gaboxadol 15 mg; zolpidem 10 mg), on-the-road driving test at 9 am): numerically greater effect

CN1CCN(C(=O)OC2c3nccnc3C(=O)N2c2ccc(Cl)cn2)CC1 (centres unmarked) [zopiclone]
effect on memory test, body sway, DSST or critical tracking [2]: had effect on several of these tests | effect on driving performance, evening dose ([2]; evening dose before bed (gaboxadol 15 mg; zopiclone 7.5 mg), on-the-road driving test at 9 am): numerically greater effect
